According to patent publication US4745124A, “Orally effective anti-hypertensive agents” (priority 1983, dated 1988):
“And” between values parts separate entries of the source, which are not always exact repeats. Equal entries are not always repeated.

Assays:
serum ACE [1] = test: oral effectiveness: intrinsic serum ACE activity in rats; assay type: in vivo, female Sprague-Dawley rat; conditions: oral 1 mg/kg
Protocol: B. In certain experiments, as identified, an alternative assay system was employed using [^3 H]-HipGlyGly as substrate as described by Ryan, J. W., et al., Biochem. J. 167 501 (1977).
Female Sprague-Dawley rats, approximately 250 g weight, were fasted overnight and then administered either 0.5 ml of saline, via stomach tube, or 0.5 ml saline containing compound (I) at a dose of 1 mg per kg of body weight. At timed intervals the rats were beheaded using a guillotine and 3 ml-5 ml blood was collected. The sera were assayed for intrinsic ACE activity, using the assay of Example 216B.

serum ACE [2] = test: oral effectiveness: intrinsic serum ACE activity in unanesthetized rabbits; assay type: in vivo; conditions: oral 1 mg, about 1 kg rabbit
Protocol: A. ACE activity assay. For most experiments described herein, the enzyme ACE was assayed in 0.05M Hepes buffer, pH 8.0 containing 0.1M NaCl and 0.75M Na2 SO4. The substrate employed was Benzoyl-GlyHisLeu at a final concentration of 1×10^-4 M, together with about 130,000 cpm of [^3 H]-Benzoyl GlyHisLeu (25 Ci/mmole). Enzyme was diluted in the above buffer such that 40 μl buffered enzyme was capable of hydrolyzing 13% of substrate in a 15-minute incubation at 37° C. To initiate the assay, 40 μl of enzyme and 10 μl of water or inhibitor dissooved in water were preincubated for five minutes at 37° C. Substrate, 50 μl, was then added to initiate reaction and the solution was incubated for 15 minutes at 37° C. To terminate the reaction, 1 ml of 0.1M HCl was added, following which 1 ml of ethyl acetate was added. The mixture was agitated on a rotary mixer and centrifuged briefly to separate the phases.
Young, unanesthetized rabbits, fasted overnight, weighing about 1 kg, were given compound (I). The compound was dissolved in water at alkaline pH, 1 mg of (I) in 3 ml water containing 50 μl 1N NaHCO3. Blood samples, 0.5 ml, were collected at timed intervals from a marginal ear vein. Sera obtained after clot formation and centrifugation were assayed for intrinsic ACE activity, using 1 μl in the assay of Example 216A.

[3] = target: T1, angiotensin converting enzyme (human urinary ACE) (Homo sapiens, UniProt P12821); test: ACE activity assay, I50 (Example 216A); assay type: biochemical; conditions: human urinary ACE; Benzoyl-GlyHisLeu 1×10^-4 M; Hepes pH 8.0; 37° C; in vitro; read-out: I50
T1 construct: ACE purified from human urine; from tissue; host or cells: human urine (ultrafiltration and Sephacryl S-200, first eluting peak; prepared as in Ryan et al., Tissue and Cell 10, 555 (1978))
T1 sequence (P12821 30-1232 limits assumed): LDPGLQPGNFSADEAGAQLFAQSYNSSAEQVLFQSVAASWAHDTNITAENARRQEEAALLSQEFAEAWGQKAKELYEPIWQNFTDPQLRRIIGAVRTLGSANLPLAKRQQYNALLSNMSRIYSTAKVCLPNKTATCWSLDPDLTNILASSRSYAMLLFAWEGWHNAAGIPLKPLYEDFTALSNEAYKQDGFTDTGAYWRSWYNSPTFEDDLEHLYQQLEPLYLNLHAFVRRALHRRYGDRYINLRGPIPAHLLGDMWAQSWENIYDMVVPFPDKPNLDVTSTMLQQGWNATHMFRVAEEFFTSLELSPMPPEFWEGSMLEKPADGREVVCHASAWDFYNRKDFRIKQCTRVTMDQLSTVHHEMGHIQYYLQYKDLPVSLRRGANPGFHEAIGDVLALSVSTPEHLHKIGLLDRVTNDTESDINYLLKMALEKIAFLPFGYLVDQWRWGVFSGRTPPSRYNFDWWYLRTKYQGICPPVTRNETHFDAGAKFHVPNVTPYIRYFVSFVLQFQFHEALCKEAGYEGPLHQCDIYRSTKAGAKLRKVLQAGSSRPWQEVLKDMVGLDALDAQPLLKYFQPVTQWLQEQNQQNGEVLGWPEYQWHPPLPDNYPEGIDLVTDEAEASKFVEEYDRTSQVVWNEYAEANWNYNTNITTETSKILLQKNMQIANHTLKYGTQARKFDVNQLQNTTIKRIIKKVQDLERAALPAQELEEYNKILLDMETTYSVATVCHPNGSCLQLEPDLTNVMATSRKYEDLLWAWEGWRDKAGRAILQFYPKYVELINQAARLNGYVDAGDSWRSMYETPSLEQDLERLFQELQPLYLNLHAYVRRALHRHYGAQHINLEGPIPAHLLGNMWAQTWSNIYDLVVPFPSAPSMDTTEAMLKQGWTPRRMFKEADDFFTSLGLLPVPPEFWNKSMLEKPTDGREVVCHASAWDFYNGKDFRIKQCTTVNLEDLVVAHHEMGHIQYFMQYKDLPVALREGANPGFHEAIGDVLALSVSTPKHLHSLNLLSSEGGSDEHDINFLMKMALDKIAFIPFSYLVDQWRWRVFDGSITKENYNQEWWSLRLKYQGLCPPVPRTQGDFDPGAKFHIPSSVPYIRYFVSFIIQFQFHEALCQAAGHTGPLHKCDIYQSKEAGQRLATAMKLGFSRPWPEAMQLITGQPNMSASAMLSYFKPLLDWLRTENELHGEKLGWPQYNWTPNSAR

## C[C@H](CSC(=O)C(Cc1ccccc1)NC(=O)c1ccccc1)C(=O)N1CCC[C@H]1C(=O)O (stereo partly drawn) [Compound (I), 2-benzoylphenylalanylthio-2-D-methylpropanoyl-L-proline]
Serum ACE [1]; 5 min, run 1
  Serum ACE activity: 100% of Control
Serum ACE [1]; 5 min, run 2
  Serum ACE activity: 100% of Control
Serum ACE [1]; 10 min, run 1
  Serum ACE activity: 65% of Control
Serum ACE [1]; 10 min, run 2
  Serum ACE activity: 52% of Control
Serum ACE [1]; 30 min, run 1
  Serum ACE activity: 50% of Control
Serum ACE [1]; 30 min, run 2
  Serum ACE activity: 45% of Control
Serum ACE [1]; 60 min, run 1
  Serum ACE activity: 50% of Control
Serum ACE [1]; 60 min, run 2
  Serum ACE activity: 42% of Control
Serum ACE [1]; 90 min, run 1
  Serum ACE activity: 20% of Control
Serum ACE [1]; 90 min, run 2
  Serum ACE activity: 20% of Control
Serum ACE [2]; 0.167 h, Rabbit 1
  Serum ACE activity: 7% of Control
Serum ACE [2]; 0.167 h, Rabbit 2
  Serum ACE activity: 11% of Control
Serum ACE [2]; 0.33 h, Rabbit 1
  Serum ACE activity: 8% of Control
Serum ACE [2]; 0.33 h, Rabbit 2
  Serum ACE activity: 9% of Control
Serum ACE [2]; 0.5 h, Rabbit 1
  Serum ACE activity: 7% of Control
Serum ACE [2]; 0.5 h, Rabbit 2
  Serum ACE activity: 8% of Control
Serum ACE [2]; 1.0 h, Rabbit 1
  Serum ACE activity: 20% of Control
Serum ACE [2]; 1.0 h, Rabbit 2
  Serum ACE activity: 44% of Control
Serum ACE [2]; 1.5 h, Rabbit 1
  Serum ACE activity: 14% of Control
Serum ACE [2]; 1.5 h, Rabbit 2
  Serum ACE activity: 55% of Control
Serum ACE [2]; 2.0 h, Rabbit 1
  Serum ACE activity: 11% of Control
Serum ACE [2]; 2.0 h, Rabbit 2
  Serum ACE activity: 44% of Control
Serum ACE [2]; 2.5 h, Rabbit 1
  Serum ACE activity: 12% of Control
Serum ACE [2]; 2.5 h, Rabbit 2
  Serum ACE activity: 40% of Control
Serum ACE [2]; 3.0 h, Rabbit 1
  Serum ACE activity: 30% of Control
Serum ACE [2]; 4.0 h, Rabbit 1
  Serum ACE activity: 23% of Control
Serum ACE [2]; 5.0 h, Rabbit 1
  Serum ACE activity: 19% of Control
Serum ACE [2]; 20.0 h, Rabbit 1
  Serum ACE activity: 70% of Control
[3]
  IC50: 40 nM and 10 nM
